{"source": "patent US20140228278A1", "about": "“ANTIBIOTICS AND METHODS FOR MANUFACTURING THE SAME” (priority 2011, published 2014)", "key": {"Arthrobacter sp.": {"system": "Arthrobacter sp.", "assay_type": "cell-based", "parameters": "key: ++: inhibition; +: weak inhibition; −: no inhibition"}, "Pseudomonas sp.": {"system": "Pseudomonas sp.", "test": "Agar bioassay, growth suppression seen as clear zone", "assay_type": "cell-based", "parameters": "key: ++: inhibition; +: weak inhibition; −: no inhibition", "conditions": "indicator strain Pseudomonas sp."}, "[1]": {"system": "Paenibacillus granivorans", "assay_type": "cell-based", "parameters": "key: ++: inhibition; +: weak inhibition; −: no inhibition"}, "Bacillus subtilis HB0042": {"system": "Bacillus subtilis HB0042", "test": "Agar bioassay, growth suppression seen as clear zone", "assay_type": "cell-based", "parameters": "key: ++: inhibition; +: weak inhibition; −: no inhibition", "conditions": "indicator strain Bacillus subtilis HB0042"}, "Bacillus brevis ATCC8246": {"system": "Bacillus brevis ATCC8246", "assay_type": "cell-based", "parameters": "key: ++: inhibition; +: weak inhibition; −: no inhibition"}, "Bacillus pumilus": {"system": "Bacillus pumilus", "assay_type": "cell-based", "parameters": "key: ++: inhibition; +: weak inhibition; −: no inhibition"}, "Paenibacillus polymyxa": {"system": "Paenibacillus polymyxa", "assay_type": "cell-based", "parameters": "key: ++: inhibition; +: weak inhibition; −: no inhibition"}, "Bacillus subtilis CU1065": {"system": "Bacillus subtilis CU1065", "test": "Agar bioassay, growth suppression seen as clear zone", "assay_type": "cell-based", "parameters": "key: ++: inhibition; +: weak inhibition; −: no inhibition", "conditions": "indicator strain Bacillus subtilis CU1065"}, "[2]": {"system": "Bacillus licheniformis ATCC9789", "assay_type": "cell-based", "parameters": "key: ++: inhibition; +: weak inhibition; −: no inhibition"}, "[3]": {"system": "Staphylococcus aureus st. NRS384/USA300 [MRSA]", "assay_type": "cell-based"}, "Listeria monocytogenes": {"system": "Listeria monocytogenes", "assay_type": "cell-based"}, "[4]": {"system": "Enterococcus faecalis st. U503 [VRE]", "assay_type": "cell-based"}, "Streptococcus pyogenes": {"system": "Streptococcus pyogenes", "assay_type": "cell-based"}, "[5]": {"system": "B. anthracis strain Sterne", "assay_type": "cell-based, Bacillus anthracis"}, "E. coli K12": {"system": "E. coli K12", "test": "Agar bioassay, growth suppression seen as clear zone", "assay_type": "cell-based", "parameters": "key: ++: inhibition; +: weak inhibition; −: no inhibition", "conditions": "indicator strain E. coli K12"}, "Bacillus subtilis 168": {"system": "Bacillus subtilis 168", "test": "Agar bioassay, growth suppression seen as clear zone", "assay_type": "cell-based", "parameters": "key: ++: inhibition; +: weak inhibition; −: no inhibition", "conditions": "indicator strain Bacillus subtilis 168"}, "Micrococcus luteus": {"system": "Micrococcus luteus", "assay_type": "cell-based", "parameters": "key: ++: inhibition; +: weak inhibition; −: no inhibition"}, "[6]": {"system": "Bacillus cereus ATCC14579", "assay_type": "cell-based", "parameters": "key: ++: inhibition; +: weak inhibition; −: no inhibition"}, "B. anthracis": {"system": "B. anthracis", "assay_type": "cell-based, Bacillus anthracis"}, "B. amylo. FZB42": {"system": "B. amylo. FZB42", "assay_type": "cell-based, Bacillus amyloliquefaciens"}, "Staphylococcus aureus": {"system": "Staphylococcus aureus", "test": "Agar bioassay, growth suppression seen as clear zone", "assay_type": "cell-based", "parameters": "key: ++: inhibition; +: weak inhibition; −: no inhibition", "conditions": "indicator strain Staphylococcus aureus"}, "[7]": {"system": "B. anthracis strain Sterne", "assay_type": "cell-based, Bacillus anthracis", "remark": "listed apart in the source"}, "Bacillus megaterium 7A1": {"system": "Bacillus megaterium 7A1", "assay_type": "cell-based", "parameters": "key: ++: inhibition; +: weak inhibition; −: no inhibition"}, "Erwinia caratovora": {"system": "Erwinia caratovora", "assay_type": "cell-based", "parameters": "key: ++: inhibition; +: weak inhibition; −: no inhibition"}, "Klebsiella terrigena": {"system": "Klebsiella terrigena", "test": "Agar bioassay, growth suppression seen as clear zone", "assay_type": "cell-based", "parameters": "key: ++: inhibition; +: weak inhibition; −: no inhibition", "conditions": "indicator strain Klebsiella terrigena"}, "[8]": {"system": "any other tested bacterium", "assay_type": "cell-based"}, "Bacillus sphaericus": {"system": "Bacillus sphaericus", "assay_type": "cell-based", "parameters": "key: ++: inhibition; +: weak inhibition; −: no inhibition"}, "B. pumilus ATCC 7061": {"system": "B. pumilus ATCC 7061", "assay_type": "cell-based, Bacillus pumilus"}, "B. amylo. (NRRL B-14393)": {"system": "B. amylo. (NRRL B-14393)", "assay_type": "cell-based, Bacillus amyloliquefaciens"}}, "data": [{"compound": "CC[C@H](C)[C@H](NC(=O)c1nc(-c2nc(-c3csc(-c4nc(-c5csc(C(CCCN=C(N)N)N(C)C)n5)oc4C)n3)oc2C)oc1C)C(=O)N[C@H](c1nc(-c2nc(-c3nc(-c4nc(C5=NC(C(=O)N[C@@H](Cc6ccccc6)C(=O)O)C(C)O5)co4)co3)co2)co1)[C@@H](C)CC", "note": "(stereo partly drawn) [PZN, plantazolicin]", "values": [{"measurement": "Degree of inhibition in a bioassay", "setting": "Arthrobacter sp.", "value": "−"}, {"measurement": "Degree of inhibition in a bioassay", "setting": "Pseudomonas sp.", "value": "−"}, {"measurement": "Degree of inhibition in a bioassay", "setting": "[1]", "value": "+"}, {"measurement": "Degree of inhibition in a bioassay", "setting": "Bacillus subtilis HB0042", "value": "++"}, {"measurement": "Degree of inhibition in a bioassay", "setting": "Bacillus brevis ATCC8246", "value": "+"}, {"measurement": "Degree of inhibition in a bioassay", "setting": "Bacillus pumilus", "value": "−"}, {"measurement": "Degree of inhibition in a bioassay", "setting": "Paenibacillus polymyxa", "value": "−"}, {"measurement": "Degree of inhibition in a bioassay", "setting": "Bacillus subtilis CU1065", "value": "+"}, {"measurement": "Degree of inhibition in a bioassay", "setting": "[2]", "value": "+"}, {"measurement": "Growth inhibition in microbroth dilution bioassay", "setting": "[3]", "value": "unaffected"}, {"measurement": "Growth inhibition in microbroth dilution bioassay", "setting": "Listeria monocytogenes", "value": "unaffected"}, {"measurement": "Growth inhibition in microbroth dilution bioassay", "setting": "[4]", "value": "unaffected"}, {"measurement": "Growth inhibition in microbroth dilution bioassay", "setting": "Streptococcus pyogenes", "value": "only inhibited by very high concentrations"}, {"measurement": "Growth inhibition / activity against B. anthracis in microbroth dilution bioassay", "setting": "[5]", "value": "potent growth inhibition"}, {"measurement": "MIC99", "setting": "[5]", "value": 4, "unit": "µg/mL"}, {"measurement": "Degree of inhibition in a bioassay", "setting": "E. coli K12", "value": "−"}, {"measurement": "Degree of inhibition in a bioassay", "setting": "Bacillus subtilis 168", "value": "+"}, {"measurement": "Degree of inhibition in a bioassay", "setting": "Micrococcus luteus", "value": "+"}, {"measurement": "Degree of inhibition in a bioassay", "setting": "[6]", "value": "+"}, {"measurement": "Cell morphology by DIC microscopy", "setting": "B. anthracis", "value": "massive lysis"}, {"measurement": "Susceptibility to the action of PZN", "setting": "B. amylo. FZB42", "value": "no observable inhibition"}, {"measurement": "Degree of inhibition in a bioassay", "setting": "Staphylococcus aureus", "value": "−"}, {"measurement": "Mode of action (bactericidal) on reculturing of treated cells in the absence of PZN", "setting": "[7]", "value": "bactericidal"}, {"measurement": "Degree of inhibition in a bioassay", "setting": "Bacillus megaterium 7A1", "value": "++"}, {"measurement": "Degree of inhibition in a bioassay", "setting": "Erwinia caratovora", "value": "−"}, {"measurement": "Degree of inhibition in a bioassay", "setting": "Klebsiella terrigena", "value": "−"}, {"measurement": "Inhibition zones in agar diffusion bioassay", "setting": "[8]", "value": "inhibition zones were not observed"}, {"measurement": "Degree of inhibition in a bioassay", "setting": "Bacillus sphaericus", "value": "+"}, {"measurement": "Susceptibility to the action of PZN", "setting": "B. pumilus ATCC 7061", "value": "no observable inhibition"}, {"measurement": "Susceptibility to the action of PZN", "setting": "B. amylo. (NRRL B-14393)", "value": "completely resistant"}]}]}
